Source: patent EP0433457B1, “ANTIPRURITIC COMPOSITION” (SHISEIDO COMPANY LIMITED, priority 1989, dated 1990)
Counter-ions that a name gives are not always drawn.

Columns and labels:
pruritus of bradykinin [1] = assay: Antipruritic effect test (therapeutical test), bradykinin pruriogeneic animal, sample applied 5 minutes after bradykinin; assay type: in vivo, Hartley-strain male guinea pigs; conditions: 1 wt.%
Method: (§1) Using healthy Hartley-strain male guinea pigs, bradykinin, which is a pruriogeneic substance, was intradermally introduced at the side abdominal part to obtain a pruriogeneic animal.
(§2) The pruriginous behaviors were rated according to the standards shown below, and represented as pruriginous activity.
(§3) For four or six guinea pigs of one group, the above-mentioned behavior observation was conducted by three or more members at the same time for 20 minutes, and the pruriginous activity (score) determined as an average value ± standard deviation of the evaluation scores, and the antripruritic effect judged by the significance difference test with the Vehicle control group according to the Student's T test.
Healthy guinea pigs (weighing 450 - 600 g) depilated at the right abdominal side part on the previous day were divided into three groups of 6.
Using the same test methods as described above, the zinc picolinate preparation and the crotamiton preparation each of 1% concentration were examined by comparison with the Vehicle control group.

[2] = tested on: histamine pruriogeneic animal; assay: Antipruritic effect test of histamine pruriogeneic animal (therapeutical test); assay type: in vivo, Hartley-strain male guinea pigs; conditions: Table 10; 3 wt.%, 0.1 ml applied five minutes after histamine 50 µg/0.05 ml intradermal; vehicle control 16.6 ± 0.5
[3] = tested on: kallikrein pruriogeneic animal; assay: Antipruritic test of kallikrein pruriogeneic animal (therapeutical test); assay type: in vivo, Hartley-strain male guinea pigs
Description: There is already known a pruriogeneic substance other than bradyokinin which cannot be inhibited by antihistamines; namely, kallikrein (International Journal of Dermatology, Vol. 14, pages 465 - 484, 1975).
Using healthy Hartley-strain male guinea pigs, bradykinin, which is a pruriogeneic substance, was intradermally administered at the side abdominal part to obtain a pruriogeneic animal.
The pruriginous behaviors were rated according to the standards shown below and represented as pruriginous activity.
as §3, with “For” for “For four or”
Healthy male guinea pigs (weighing 450 - 600 g) depilated at the right abdominal side part by electrical clippers on the previous day were divided into three groups of six.
Using the same test method as in 4-1, animals were divided into four groups of 6.

plasmin = biological target: T1, plasmin (Homo sapiens, UniProt P00747); assay: Antiplasmin activity, fibrin plate method; assay type: biochemical; conditions: 50% inhibition of fibrinolytic activity by plasmin; pre-incubation 37°C 30 minutes
T1 construct: purchased Sigma
Method: The antiplasmin active action was determined as the sample amount necessary for a 50% inhibition (IC₅₀: mg/ml) from the inhibition ratio of the fibrinolytic activity by plasmin, by using the fibrin plate method.
A fibrin plate was prepared according to the method of Warren et al. (Hemostasis Vol. 4, page 110, 1975) by dissolving under heating 100 mg of agarose in 5 ml of a 0.01 M phosphate buffer supplemented with 0.15 M sodium chloride, followed by cooling to 50°C. In this solution was dissolved 10 mg of a plasminogen free fibrinogen (Daiichi Kagaku Yakuhin), and after 0.1 ml of a thrombin solution (100 units/ml, Mochida Seiyaku) was dropwise added to the solution, the mixture was immediately poured into a laboratory dish (diameter 9 cm, Terumo) and left to cool, to be thereby solidified. A plasminogen free fibrin plate was prepared. By forming a well 6 mm in diameter at the center of the dish.

pruritus of bradykinin [4] = assay: Antipruritic effect test, bradykinin pruriogeneic animal, sample applied immediately before bradykinin; assay type: in vivo, Hartley-strain male guinea pigs; conditions: bradykinin 10 µg/0.1 ml
Method: as §1, §2, §3
Immediately thereafter, bradykinin 10 µg/0.1 ml was subcutaneously administered at the same applied site, and the score (average value ± standard deviation) of pruriginous activity by pruriginous behaviors was examined by comparison.
As described above in (1), healthy male guinea pigs (weighing 450 - 600 g) depilated at the right abdominal side part by electrical clippers on the previous day were divided into four groups each of four, of which one group was externally applied at the right abdominal side part with only the vehicle for external application (Vehicle control), and other groups with respective preparations of a mixture group of 1.24% by weight of picolinic acid and 2.88% by weight of zinc sulfate corresponding respectively to the picolinic acid amount and the zinc amount of 3% by weight of zinc picolinate, a 2.88% by weight zinc sulfate single substance group and a 3.17% by weight of zinc pyrithione group corresponding to the zinc amount in each 0.1 ml amount. Immediately thereafter, bradykinin 10 µg/0.1 ml was subcutaneously administered at the same applied site, and the score of pruriginous activity by pruriginous behaviors was examined by comparison.

bradykinin = assay: Antipruritic effect test (therapeutical test) of chelated zinc compounds other than zinc picolinate, bradykinin; assay type: in vivo, guinea pigs; conditions: 1% (by weight), 0.1 ml applied 5 minutes after bradykinin 50 µg/0.5 ml intradermal; average score compared with Vehicle control group; 85% or less judged effective
Method: Healthy male guinea pigs (weighing 450 - 600 g) depilated at the right abdominal side part by electrical clippers on the previous day were divided into three groups of 6. At the right abdominal side part was intradermally administered 50 µg/0.5 ml of bradykinin, and 5 minutes later, one group was externally applied at the site where bradykinin had been applied with only the vehicle for external application (Vehicle control), and other groups with each 1% (by weight) concentration of samples in each 0.1 ml amount, and the average value of the scores of antipruritic activity by pruriginous behaviors was examined by comparison with the Vehicle control group.
The antipruritic effect was judged to be effective for an average value of the scores of 85% or less.

[5] = tested on: skin (Futat skin and Abraded skin); conditions: rabbit, in vivo
Method: The test was conducted according to the method of the FDA method (U.S. Food and Drug Administration method).
Eight Japanese White species rabbits weighing 2.3 to 3 kg were depilated at the back by electrical clippers and divided into two groups of four, one group being as such (Futat skin) and the other group having an abrasion made at the testing side (Adraded skin), and were fixed on a fixer. An amount of 0.3 ml of the test substance was applied to the skin by a sticking plaster for an animal test having a lint cloth 25 mm in diameter. After 24 hours, the sticking plaster was removed, and the reaction of the skin evaluated in terms of the degrees of erythema and edema, according to the following standards. The judgement was again performed 72 hours later.
The skin primary irritation evaluation score is shown by an average value obtained by adding average values of a judgement of the formation of erythema and edema after 24 and 72 hours for four rabbits with Futat skin and Abraded skin, and dividing the value by the animal test sample number of 4.
The standards of the evaluation score (average value) of the skin safety is as shown below. Evaluation score less than 2: slight irritation or substantially no irritation Evaluation score of 2 - 5: moderate irritation Evaluation score of 5 or more: strong irritation The results are shown in Table-2.

[6] = tested on: rats (Sprague Dawley strain); assay: Acute toxicity tests; assay type: in vivo
Method: First, the toxicity of the antipruritic agent according to the present invention was examined. Acute toxicity tests were conducted by using healthy 5 to 6 weeks old male and female rats (Sprague Dawley strain). An oral administration was made by suspending zinc picolinate in 20% carboxymethyl cellulose, and a subcutaneous administration was made by suspending zinc picolinate in 10% carboxylmethyl cellulose.

[7] = Table 7, same test methods as above (therapeutical test, bradykinin), vehicle control 35.4 ± 3.1
[8] = Table 9, 3 wt.%, 0.1 ml applied after kallikrein intradermal, vehicle control 18.68 ± 2.06
[9] = Table 5, 0.1 ml applied 5 minutes after bradykinin 50 µg/0.05 ml intradermal, vehicle control 30.1 ± 3.6

T1 sequence (P00747 581-810 limits assumed, species assumed): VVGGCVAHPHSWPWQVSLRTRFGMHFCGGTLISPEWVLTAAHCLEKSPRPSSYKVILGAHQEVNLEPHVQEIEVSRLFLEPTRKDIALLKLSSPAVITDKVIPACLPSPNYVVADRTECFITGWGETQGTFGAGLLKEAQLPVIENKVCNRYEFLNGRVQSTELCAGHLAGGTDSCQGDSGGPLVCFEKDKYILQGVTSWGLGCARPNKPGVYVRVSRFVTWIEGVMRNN
T1 sequence (P00747 97-580 limits assumed, species assumed): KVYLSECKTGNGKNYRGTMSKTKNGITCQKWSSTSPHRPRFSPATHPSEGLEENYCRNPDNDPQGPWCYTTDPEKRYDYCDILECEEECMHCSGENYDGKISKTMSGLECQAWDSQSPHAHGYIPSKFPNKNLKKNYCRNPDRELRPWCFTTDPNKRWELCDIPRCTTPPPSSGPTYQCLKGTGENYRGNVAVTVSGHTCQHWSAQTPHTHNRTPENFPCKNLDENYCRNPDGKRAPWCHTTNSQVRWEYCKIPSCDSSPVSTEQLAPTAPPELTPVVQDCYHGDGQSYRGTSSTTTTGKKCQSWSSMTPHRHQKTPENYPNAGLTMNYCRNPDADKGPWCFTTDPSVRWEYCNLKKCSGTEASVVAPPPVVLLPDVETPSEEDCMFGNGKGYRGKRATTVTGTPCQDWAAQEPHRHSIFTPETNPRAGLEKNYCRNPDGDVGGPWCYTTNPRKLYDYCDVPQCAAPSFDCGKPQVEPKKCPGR

Molecule: CC=CC(=O)N(CC)c1ccccc1C [Crotamiton, reference compound]
- Pruritic activity/20 min. (pruritus of bradykinin [1]; [7]): 29.3 ± 3.3
- Pruritic activity/20 min. [2]: 18.9 ± 2.5
- Pruritic activity/20 min. [3, 8]: 15.15 ± 1.92

Molecule: CN(C)CCOC(c1ccccc1)c1ccccc1 [Diphenhydramine hydrochloride, reference compound]
- IC₅₀ (plasmin): No action at 10 mg/ml

Molecule: CN(C)CCOC(c1ccccc1)c1ccccc1 [Diphenhydramine, reference compound]
- Pruritic activity/20 min. (pruritus of bradykinin [1]; [9]): 27.9 ± 2.0
- Pruritic activity/20 min. [2]: 12.4 ± 0.5
- Pruritic activity/20 min. [3, 8]: 17.00 ± 1.26
- Pruritic activity/20 min. (pruritus of bradykinin [4]; Table 4, 1 wt.%, 0.1 ml external, mean ± SD, vehicle control 45.7 ± 5.7): 36.9 ± 3.0

Molecule: zinc 3-hexyloxypicolinate [J]
- Pruritic activity score (%) (bradykinin): 75.7%

Molecule: zinc 3-hydroxypicolinate
- Pruritic activity score (%) (bradykinin): 58.0%

Molecule: zinc 3-methylpicolinate [Compound No. B]
- Pruritic activity score (%) (bradykinin): 65.9%

Molecule: zinc 3-propoxypicolinate [Compound No. D]
- Pruritic activity score (%) (bradykinin): 41.2%

Molecule: zinc 3-undecylpicolinate [Compound No. M]
- Pruritic activity score (%) (bradykinin): 70.1%

Molecule: zinc 4-carboxypicolinate [Compound No. S]
- Pruritic activity score (%) (bradykinin): 66.3%

Molecule: zinc 4-chloropicolinate [Compound No. R]
- Pruritic activity score (%) (bradykinin): 18.5%

Molecule: zinc 4-methylpicolinate [Compound No. C]
- Pruritic activity score (%) (bradykinin): 74.1%

Molecule: zinc 4-nitropicolinate [Compound No. Q]
- Pruritic activity score (%) (bradykinin): 58.3%

Molecule: zinc 4-t-butylpicolinate [Compound No. I]
- Pruritic activity score (%) (bradykinin): 63.3%

Molecule: zinc 4-undecylpicolinate [Compound No. N]
- Pruritic activity score (%) (bradykinin): 64.4%

Molecule: zinc 5-(2-ethylhexyloxy)picolinate [Compound No. L]
- Pruritic activity score (%) (bradykinin): 60.3%

Molecule: zinc 5-butoxypicolinate [Compound No. G]
- Pruritic activity score (%) (bradykinin): 66.2%

Molecule: zinc 5-propoxypicolinate [Compound No. E]
- Pruritic activity score (%) (bradykinin): 81.5%

Molecule: zinc 6-butoxypicolinate [Compound No. H]
- Pruritic activity score (%) (bradykinin): 71.8%

Molecule: zinc 6-hexyloxypicolinate [Compound No. K]
- Pruritic activity score (%) (bradykinin): 74.8%

Molecule: zinc 6-undecylpicolinate [Compound No. O]
- Pruritic activity score (%) (bradykinin): 65.0%

Molecule: zinc picolinate
- Skin primary irritation evaluation score [5]: 1.6
- amount soluble in water as such: ≤ 0.5 % by weight
- LD₅₀ value ([6]; Female rats, Oral): >2000 mg/kg
- Lethality ([6]; Female rats, Oral, dose 200 mg/kg, suspended in 20% carboxymethyl cellulose): 0/5
- Lethality ([6]; Female rats, Subcutaneous, dose 70 mg/kg): 0/5
- Lethality ([6]; Female rats, Subcutaneous, dose 91 mg/kg): 0/5
- Lethality ([6]; Female rats, Subcutaneous, dose 118 mg/kg): 2/5
- Lethality ([6]; Female rats, Subcutaneous, dose 154 mg/kg): 5/5
- Lethality ([6]; Female rats, Subcutaneous, dose 200 mg/kg): 5/5
- LD₅₀ value ([6]; Female rats, Subcutaneous, suspended in 10% carboxylmethyl cellulose): 122 mg/kg
- LD₅₀ value ([6]; Male rats, Oral): >2000 mg/kg
- Lethality ([6]; Male rats, Oral, dose 200 mg/kg, suspended in 20% carboxymethyl cellulose): 0/5
- Lethality ([6]; Male rats, Subcutaneous, dose 70 mg/kg): 0/5
- Lethality ([6]; Male rats, Subcutaneous, dose 91 mg/kg): 1/5
- Lethality ([6]; Male rats, Subcutaneous, dose 118 mg/kg): 2/5
- Lethality ([6]; Male rats, Subcutaneous, dose 154 mg/kg): 4/5
- Lethality ([6]; Male rats, Subcutaneous, dose 200 mg/kg): 5/5
- LD₅₀ value ([6]; Male rats, Subcutaneous, suspended in 10% carboxylmethyl cellulose): 121 mg/kg
- Pruritic activity/20 min. (pruritus of bradykinin [1]; [9]): 14.9 ± 0.3
- Pruritic activity/20 min. (pruritus of bradykinin [1]; [7]): 12.7 ± 0.7
- Pruritic activity/20 min. [2]: 7.4 ± 0.5
- IC₅₀ (plasmin): 2.3 mg/mL
- Pruritic activity/20 min. ([3]; Table 8, 0.01 wt.%, 0.1 ml applied five minutes after kallikrein 25 units/0.05 ml intradermal, vehicle control 19.95 ± 2.41): 12.95 ± 0.95
- Pruritic activity/20 min. ([3]; Table 8, 10 wt.%, 0.1 ml applied five minutes after kallikrein 25 units/0.05 ml intradermal, vehicle control 19.95 ± 2.41): 12.85 ± 0.70
- Pruritic activity/20 min. [3, 8]: 12.95 ± 0.95
- Pruritic activity/20 min. (pruritus of bradykinin [4]; Table 4, 0.01 wt.%, 0.1 ml external, mean ± SD, vehicle control 45.7 ± 5.7): 17.5 ± 2.4
- Pruritic activity/20 min. (pruritus of bradykinin [4]; Table 4, 10 wt.%, 0.1 ml external, mean ± SD, vehicle control 45.7 ± 5.7): 15.5 ± 1.6
- Pruritic activity/20 min. (pruritus of bradykinin [4]; Table 6, 3 wt.%, 0.1 ml, vehicle control 40.1 ± 6.7): 17.7 ± 1.4^*1

Molecule: zinc picolinate N-oxide [Compound No. P]
- Pruritic activity score (%) (bradykinin): 85.0%

Molecule: zinc pyrithione [reference compound]
- Pruritic activity/20 min. (pruritus of bradykinin [4]; Table 6, 3.17 wt.%, 0.1 ml, vehicle control 40.1 ± 6.7): 43.4 ± 6.4

Molecule: zinc sulfate [reference compound]
- Pruritic activity/20 min. (pruritus of bradykinin [4]; Table 6, 2.88 wt.%, 0.1 ml, vehicle control 40.1 ± 6.7): 33.7 ± 5.2
